From patent US10647710B2, “Thiazole derivative and applications thereof” (Medshine Discovery Inc., priority 2017, dated 2020)
pEC50: −log10 of the molar value. Where two headings read alike, the source gives them in different places.

Key:
[1] = test system: herpes simplex virus type 1 (HSV-1) GHSV-UL46 strain; experiment: HSV-1 cytopathic effect (CPE) assay; type: cell-based
Protocol: To evaluate the antiviral activity of compounds against the herpes simplex virus type 1 (HSV-1) GHSV-UL46 strain in the cytopathic effect (CPE) assay.
Virus: HSV-1 GHSV-UL46, ATCC # VR-1544
Cells: African green monkey kidney cell Vero E6, obtained from Wuhan Institute of Virology, Chinese Academy of Sciences.
1.4. The cells were diluted to 1.33×10^5 cells/ml using cytopathic assay medium. The diluted cell suspension was added to a 384-well plate (Corning #3701) by using Multidrop, and 30 μl of the diluted cell suspension (4000 cells) per well were added.
2.2. Compounds were added to cell-inoculated 384-well plates using an ECHO 555 liquid workstation. Eight concentrations were tested in duplicate for each assay compound. For the cell control wells, neither compound nor virus was added. For the virus control wells, no compound was added. The final concentration of DMSO in all the wells was 0.5%.
2.3. The virus was diluted with the assay medium at an inoculation amount of 1.5 TCID90/well, 30 μl. The assay medium was added to the cell control wells with Multidrop, 30 μl per well. Then the diluted virus was added to the compound test wells and the virus control wells with Multidrop, 30 μl per well.
2.4. The cell plates were placed and cultured in a 37° C., CO2 cell incubator for 5 days.
3.2. CCK8 was added to the cell plate with Multidrop, 6 μl per well.
3.4. The absorbance of each well of the cell plate was read with a microplate reader at a wavelength of 450 nm, and 630 nm was used as the reference wavelength. The raw data were obtained by substrating the absorbance at 630 nm from the absorbance at 450 nm (Raw data=OD450-OD630).
4.1. The antiviral activity (% Inhibition) of the assay compound was calculated using the following equation: […]
wherein, Sample is the absorbance of the compound test well; cell control is the average of the absorbances of the cell control wells; and virus control is the average of the absorbances of the virus control wells.
4.2. Dose-response curves were plotted using GraphPad Prism software and the half maximal effective concentration (EC50) of the assay compounds was determined.

[2] = Pharmacokinetics of compounds in mice in vivo; conditions: male, mouse, Balb/c mice; for bioavailability / AUC: oral administration (gavage) 1.0 mg/kg; for bioavailability: read-out: Bioavailability F; for AUC: read-out: Concentration Integral AUC
Protocol: Objective: To test the pharmacokinetics of compounds in mice in vivo.
Balb/c mice (male, 18-22 g, 6-8 weeks old, Shanghai Slack)
The pharmacokinetics profile of the compound in rodent was tested using a standard protocol after intravenous and oral administrations. The candidate compound was prepared as a corresponding solution, which was administered as a single intravenous injection (1.0 mg/kg, 5% DMSO/95% 20% hydroxypropyl-β-cyclodextrin) or gavage (1.0 mg/kg, 0.5% methyl Cellulose MC4000). The whole blood samples were collected within 24 hours, centrifuged at 3000 g for 15 minutes, and plasma samples were obtained by separating the supernatant. 4 times volume of acetonitrile solution containing an internal standard was added to precipitate proteins. After centrifugation, the supernatant was collected, to which an equal volume of water was added, and further centrifuged to collect the supernatant. The LC-MS/MS analysis method was used to quantitatively analyze the plasma concentration, and the pharmacokinetics parameters, such as peak concentration, peak time, clearance rate, half-life, area under the curve, and bioavailability were calculated.

[3] = Human alphaherpesvirus 1, Vero C1008, in Chlorocebus sabaeus, 120 h, read-out: HSV-1 cytopathic effect EC50, HSV-1 GHSV-UL46 in Vero E6 cells, 5 days culture, CCK8 readout
[4] = read-out: HSV-1 cytopathic effect EC50, HSV-1 GHSV-UL46 in Vero E6 cells, 5 days culture, CCK8 readout

Cc1nc(N(C)C(=O)C2Cc3ccc(-c4ccccn4)cc3C2)sc1S(N)(=O)=O (single isomer, unassigned) [WX037]
pEC50 [1, 3]: 8.15
bioavailability ([2]; plasma): 75%
AUC ([2]; plasma): 24.4 µM·h
clearance ([2]; plasma, single intravenous injection 1.0 mg/kg): 1.2 mL/min/kg
half-life ([2]; plasma, single intravenous injection 1.0 mg/kg, read-out: Half life T1/2 (converted)): 6 h

Cc1nc(N(C)C(=O)Cc2ccc(-c3ccccn3)cc2)sc1S(N)(=O)=O [Pritelivir, reference compound]
bioavailability ([2]; in vivo): 100%
AUC ([2]; in vivo): 129 µM·h
clearance ([2]; in vivo, single intravenous injection 1.0 mg/kg): 0.4 mL/min/kg

Cc1nc(N(C)C(=O)[C@@H]2CCc3cc(-c4ccccn4)ccc32)sc1S(N)(=O)=O [WX017]
pEC50 [1, 3]: 7.34

Cc1nc(N(C)C(=O)[C@H]2CCc3cc(-c4ccccn4)ccc32)sc1S(N)(=O)=O [WX018]
pEC50 [1, 3]: 6.60

Cc1nc(N(C)C(=O)[C@@H]2CCCc3cc(-c4ccccn4)ccc32)sc1S(N)(=O)=O [WX030]
pEC50 [1, 3]: 6.02

Cc1nc(N(C)C(=O)[C@H]2CCCc3cc(-c4ccccn4)ccc32)sc1S(N)(=O)=O [WX031]
pEC50 [1, 3]: 6.11

Cc1nc(N(C)C(=O)C2Cc3ccc(-c4ccccn4)cc3C2)sc1S(N)(=O)=O (centres unmarked) [WX036]
pEC50 [1, 3]: < 6.00

Cc1nc(N(C)C(=O)N2Cc3ccc(-c4ccccn4)cc3C2)sc1S(N)(=O)=O [WX042]
pEC50 [1, 3]: 7.38

Cc1nc(N(C)C(=O)C2Cc3ccc(-c4ccccn4)cc3C2)sc1S(=O)(=O)NC1CC1 (centres unmarked) [WX043]
pEC50 [1, 3]: 8.05

CC(=O)OCC1(C(=O)N(C)c2nc(C)c(S(N)(=O)=O)s2)Cc2ccc(-c3ccccn3)cc2C1 (centres unmarked) [WX072]
pEC50 [1, 3]: 6.44

Cc1nc(N(C)C(=O)C2(CO)Cc3ccc(-c4ccccn4)cc3C2)sc1S(N)(=O)=O (centres unmarked) [WX073]
pEC50 [1, 3]: 6.92

Cc1nc(N(C)C(=O)C2(C)Cc3ccc(-c4ccccn4)cc3C2)sc1S(N)(=O)=O (centres unmarked) [WX074]
pEC50 [1, 3]: 7.37

Cc1nc(N(C)C(=O)N2CCc3ccc(-c4ccccn4)cc3C2)sc1S(N)(=O)=O [WX128]
pEC50 [1, 3]: 6.85

COc1cccc(-c2ccc3c(c2)CC(C(=O)N(C)c2nc(C)c(S(N)(=O)=O)s2)C3)n1 (centres unmarked) [WX129]
pEC50 [1, 3]: 7.34

Cc1nc(N(C)C(=O)C2Cc3ccc(-c4nccs4)cc3C2)sc1S(N)(=O)=O (centres unmarked) [WX130]
pEC50 [1, 3]: 7.77

Cc1nc(N(C)C(=O)C2COc3ccc(-c4ccccn4)cc3C2)sc1S(N)(=O)=O (centres unmarked) [WX131]
pEC50 [1, 3]: 6.89

Cc1nc(N(C)C(=O)C2CCc3ccc(-c4ccccn4)cc3C2)sc1S(N)(=O)=O (centres unmarked) [WX133]
pEC50 [1, 3]: 6.85

Cc1nc(N(C)C(=O)C2Cc3ccc(-c4cccc(N(C)C)n4)cc3C2)sc1S(=O)(=O)NC1CC1 (centres unmarked) [WX142]
pEC50 [1, 3]: 6.82

Cc1nc(N(C)C(=O)C2Cc3ccc(Oc4ccccn4)cc3C2)sc1S(N)(=O)=O (centres unmarked) [WX144]
pEC50 [1, 3]: 6.39

Cc1cccc(-c2ccc3c(c2)C[C@@H](C(=O)N(C)c2nc(C)c(S(N)(=O)=O)s2)C3)n1 [WX146]
pEC50 [1, 3]: 7.92

Cc1cccc(-c2ccc3c(c2)C[C@H](C(=O)N(C)c2nc(C)c(S(N)(=O)=O)s2)C3)n1 [WX147]
pEC50 [1, 3]: 6.11

Cc1nc(N(C)C(=O)[C@H]2Cc3ccc(-c4cccc(N(C)C)n4)cc3C2)sc1S(N)(=O)=O [WX148]
pEC50 [1, 3]: 7.36

Cc1nc(N(C)C(=O)[C@@H]2Cc3ccc(-c4cccc(N(C)C)n4)cc3C2)sc1S(N)(=O)=O [WX149]
pEC50 [1, 3]: 6.26

Cc1nc(N(C)C(=O)[C@H]2Cc3ccc(-c4cccc(N)n4)cc3C2)sc1S(N)(=O)=O [WX150]
pEC50 [1, 3]: 7.92

Cc1nc(N(C)C(=O)[C@@H]2Cc3ccc(-c4cccc(N)n4)cc3C2)sc1S(N)(=O)=O [WX151]
pEC50 [1, 3]: 6.64

Cc1nc(N(C)C(=O)[C@H]2Cc3ccc(-c4cccc(N)n4)cc3C2)sc1S(=O)(=O)NC1CC1 [WX152]
pEC50 [1, 3]: 8.15

Cc1nc(N(C)C(=O)[C@@H]2Cc3ccc(-c4cccc(N)n4)cc3C2)sc1S(=O)(=O)NC1CC1 [WX153]
pEC50 [1, 3]: 6.09

Cc1nc(N(C)C(=O)[C@H]2Cc3ccc(-c4ncccc4F)cc3C2)sc1S(N)(=O)=O [WX154]
pEC50 [1, 3]: 6.51

Cc1nc(N(C)C(=O)[C@@H]2Cc3ccc(-c4ncccc4F)cc3C2)sc1S(N)(=O)=O [WX155]
pEC50 [1, 3]: 7.62

Cc1nc(N(C)C(=O)C2Cc3cc(Cl)c(-c4ccccn4)cc3C2)sc1S(N)(=O)=O (centres unmarked) [WX156]
pEC50 [1, 3]: 6.19

Cc1nc(N(C)C(=O)C2Cc3cc(F)c(-c4ccccn4)cc3C2)sc1S(N)(=O)=O (centres unmarked) [WX158]
pEC50 [1, 4]: < 6.00

Cc1nc(N(C)C(=O)C2Cc3cc(F)c(-c4ccccn4)cc3C2)sc1S(N)(=O)=O (centres unmarked) [WX159]
pEC50 [1, 4]: 7.77
